Measured values: US20230374038A1, “MODULATORS OF CYSTIC FIBROSIS TRANSMEMBRANE CONDUCTANCE REGULATOR” (VERTEX PHARMACEUTICALS INCORPORATED, priority 2020, published 2023)

Target: CFTR (Homo sapiens, UniProt P13569)
Experiment: Membrane Potential Dye, Enteroid Assay A
Assay type: cell-based
Settings: for EC50: read-out: Ent. A EC50
Method: Base medium (ADF+++) consisted of Advanced DMEM/Ham's F12, 2 mM Glutamax, 10 mM HEPES, 1 µg/mL penicillin/streptomycin.
Intestinal enteroid maintenance medium (IEMM) consisted of ADF+++, 1× B27 supplement, 1× N2 supplement, 1.25 mM N-acetyl cysteine, 10 mM Nicotinamide, 50 ng/mL hEGF, 10 nM Gastrin, 1 pg/mL hR-spondin-1, 100 ng/mL hNoggin, TGF-b type 1 inhibitor A-83-01, 100 μg/mL Primocin, […] P38 MAPK inhibitor SB202190.
Bath 1 Buffer consisted of 1 mM MgCl2, 160 mM NaCl, 4.5 mM KCl, 10 mM HEPES, 10 mM Glucose, 2 mM CaCl2).
Chloride Free Buffer consisted of 1 mM Magnesium Gluconate, 2 mM Calcium Gluconate, 4.5 mM Potassium Gluconate, 160 mM Sodium Gluconate, 10 mM HEPES, 10 mM Glucose.
Bath1 Dye Solution consisted of Bath 1 Buffer, 0.04% Pluronic F127, […] Methyl Oxonol, 30 μM CaCCinh-A01, 30 μM Chicago Sky Blue.
Chloride Free Dye Solution consisted of Chloride Free Buffer, 0.04% Pluronic F127, 20 μM Methyl Oxonol, 30 μM CaCCinh-A01, 30 μM Chicago Sky Blue.
Chloride Free Dye Stimulation Solution consisted of Chloride Free Dye Solution, 10 μM forskolin, 100 μM IBMX, and 300 nM Compound III.
Human intestinal epithelial enteroid cells were obtained from the Hubrecht Institute for Developmental Biology and Stem Cell Research, Utrecht, The Netherlands and expanded in T-Flasks as previously described (Dekkers J F, Wiegerinck C L, de Jonge H R, Bronsveld I, Janssens H M, de Winter-de Groot K M, Brandsma A M, de Jong N W M, Bijvelds M J C, Scholte B J, Nieuwenhuis E E S, van den Brink S, Clevers H, van der Ent C K, Middendorp S and M Beekman J M. A functional CFTR assay using primary cystic fibrosis intestinal organoids. Nat Med. 2013 July; 19(7):939-45.).
Cells were recovered in cell recovery solution, collected by centrifugation at 650 rpm for 5 min at 4° C., resuspended in TryPLE and incubated for 5 min at 37° C. Cells were then collected by centrifugation at 650 rpm for 5 min at 4° C. and resuspended in IEMM containing 10 μM ROCK inhibitor (RI). The cell suspension was passed through a 40 μm cell strainer and resuspended at 1×10^6 cells/mL in IEMM containing 10 μM RI. Cells were seeded at 5000 cells/well into multi-well plates and incubated for overnight at 37° C., 95% humidity and 5% CO2 prior to assay.
Enteroid cells were incubated with test compound in IEMM for 18-24 hours at 37° C., 95% humidity and 5% CO2. […] Briefly, cells were washed 5 times in Bath 1 Buffer. Bath 1 Dye Solution was added, and the cells were incubated for 25 min at room temperature. Following dye incubation, cells were washed 3 times in Chloride Free Dye Solution. Chloride transport was initiated by addition of Chloride Free Dye Stimulation Solution and the fluorescence signal was read for 15 min. […] Chloride transport was then expressed as a percentage of the chloride transport following treatment with 3 μM (S)—N-((6-aminopyridin-2-yl)sulfonyl)-6-(3-fluoro-5-isobutoxyphenyl)-2-(2,2,4-trimethylpyrrolidin-1-yl)nicotinamide, 3 μM (R)-1-(2,2-difluorobenzo[d][1,3]dioxol-5-yl)-N-(1-(2,3-dihydroxypropyl)-6-fluoro-2-(1-hydroxy-2-methylpropan-2-yl)-1H-indol-5-yl)cyclopropanecarboxamide and 300 nM acute N-[2,4-bis(1,1-dimethylethyl)-5-hydroxyphenyl]-1,4-dihydro-4-oxoquinoline-3-carboxamide triple combination control (% Activity).

Chain of CFTR (P13569 with tags, fused parts or gaps DEL508-508): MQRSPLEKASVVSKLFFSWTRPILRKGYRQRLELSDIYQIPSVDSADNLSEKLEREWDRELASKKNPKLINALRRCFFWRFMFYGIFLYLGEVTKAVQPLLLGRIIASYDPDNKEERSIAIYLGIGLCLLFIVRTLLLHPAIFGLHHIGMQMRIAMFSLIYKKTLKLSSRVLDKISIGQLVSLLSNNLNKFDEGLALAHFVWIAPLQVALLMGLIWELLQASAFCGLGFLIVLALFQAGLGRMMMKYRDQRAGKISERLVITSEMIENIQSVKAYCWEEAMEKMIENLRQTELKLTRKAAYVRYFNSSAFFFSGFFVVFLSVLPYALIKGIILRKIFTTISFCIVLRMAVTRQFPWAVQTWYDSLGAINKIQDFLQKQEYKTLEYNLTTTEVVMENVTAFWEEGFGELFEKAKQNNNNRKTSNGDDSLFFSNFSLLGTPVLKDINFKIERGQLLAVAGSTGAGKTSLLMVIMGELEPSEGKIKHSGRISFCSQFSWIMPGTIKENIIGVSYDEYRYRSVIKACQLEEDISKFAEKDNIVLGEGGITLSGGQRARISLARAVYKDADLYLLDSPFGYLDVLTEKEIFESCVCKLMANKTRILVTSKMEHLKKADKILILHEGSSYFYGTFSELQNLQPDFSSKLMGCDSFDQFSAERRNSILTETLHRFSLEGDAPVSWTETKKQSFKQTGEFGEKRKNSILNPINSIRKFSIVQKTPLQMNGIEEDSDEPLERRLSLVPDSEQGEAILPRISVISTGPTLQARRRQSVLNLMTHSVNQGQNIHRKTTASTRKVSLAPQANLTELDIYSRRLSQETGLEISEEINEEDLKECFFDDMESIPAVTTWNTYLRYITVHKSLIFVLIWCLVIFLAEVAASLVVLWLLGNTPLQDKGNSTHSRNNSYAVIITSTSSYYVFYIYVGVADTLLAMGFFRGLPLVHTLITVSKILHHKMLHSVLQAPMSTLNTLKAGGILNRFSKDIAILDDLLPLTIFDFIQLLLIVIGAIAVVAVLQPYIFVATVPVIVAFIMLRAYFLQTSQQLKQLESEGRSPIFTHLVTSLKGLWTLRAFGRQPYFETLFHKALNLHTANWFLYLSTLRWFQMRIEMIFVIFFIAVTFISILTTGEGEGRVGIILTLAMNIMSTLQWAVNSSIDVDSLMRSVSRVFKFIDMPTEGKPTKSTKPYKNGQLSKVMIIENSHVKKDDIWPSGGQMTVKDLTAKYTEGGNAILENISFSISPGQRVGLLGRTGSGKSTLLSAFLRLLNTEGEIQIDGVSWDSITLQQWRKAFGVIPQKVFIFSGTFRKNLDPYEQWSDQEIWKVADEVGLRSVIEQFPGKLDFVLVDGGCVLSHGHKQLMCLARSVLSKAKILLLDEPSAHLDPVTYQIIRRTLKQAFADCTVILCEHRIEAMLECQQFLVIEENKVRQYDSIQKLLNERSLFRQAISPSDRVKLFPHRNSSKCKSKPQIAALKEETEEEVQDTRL

Compound | Ent. A Max Activity | EC50
CCc1c2nc(nc1-c1c(C)ccc(OCCC(C)C)c1C)NS(=O)(=O)c1cccc(c1)NC(=O)c1cccc(c1)O2 [Compound 9] | ++ (++ is 30-60%) | < 1 µM
CCc1c2nc(nc1-c1cccnc1OC)NS(=O)(=O)c1cccc(c1)NC(=O)c1cccc(c1)O2 [Compound 20] | + (+ is <30%) | 
CCc1c2nc(nc1-c1cnccc1C)NS(=O)(=O)c1cccc(c1)NC(=O)c1cccc(c1)O2 [Compound 21] | + (+ is <30%) | 
CCc1c2nc(nc1-c1ccncc1C)NS(=O)(=O)c1cccc(c1)NC(=O)c1cccc(c1)O2 [Compound 22] | + (+ is <30%) | 
CCc1c2nc(nc1-c1ccccc1OC)NS(=O)(=O)c1cccc(c1)NC(=O)c1cccc(c1)O2 [Compound 23] | ++ (++ is 30-60%) | 3 to 30 µM
CCOc1ccccc1-c1nc2nc(c1CC)Oc1cccc(c1)C(=O)Nc1cccc(c1)S(=O)(=O)N2 [Compound 24] | + (+ is <30%) | 1 to 3 µM
CCc1c2nc(nc1-c1cccc(OCC(C)C)c1)NS(=O)(=O)c1cccc(c1)NC(=O)c1cccc(c1)O2 [Compound 27] | + (+ is <30%) | < 1 µM
CCc1c2nc(nc1-c1cccc(OC(C)C)c1)NS(=O)(=O)c1cccc(c1)NC(=O)c1cccc(c1)O2 [Compound 28] | + (+ is <30%) | 1 to 3 µM
CCc1c2nc(nc1-c1ccccc1)NS(=O)(=O)c1cccc(c1)NC(=O)c1cccc(c1)O2 [Compound 30] | + (+ is <30%) | 
Cc1ccccc1-c1nc2nc(c1C(C)(C)C)OC1CN(Cc3ccccc31)C(=O)c1cccc(c1)S(=O)(=O)N2 (centres unmarked) [Compound 39, 13-tert-Butyl-12-(o-tolyl)-8,8-dioxo-15-oxa-8λ^6-thia-1,9,11,25-tetrazapentacyclo[14.7.1.13,7.110,14.017,22]hexacosa-3,5,7(26),10(25),11,13,17(22),18,20-nonaen-2-one] | ++ (++ is 30-60%) | < 1 µM
Cc1ncccc1-c1nc2nc(c1C(F)(F)F)OC1CN(Cc3ccccc31)C(=O)c1cccc(c1)S(=O)(=O)N2 (centres unmarked) [Compound 40, 12-(2-Methyl-3-pyridyl)-8,8-dioxo-13-(trifluoromethyl)-15-oxa-8λ^6-thia-1,9,11,25-tetrazapentacyclo[14.7.1.13,7.110,14.017,22]hexacosa-3,5,7(26),10(25),11,13,17(22),18,20-nonaen-2-one] | + (+ is <30%) | 
CC(C)CCc1ccccc1-c1nc2nc(c1C(F)(F)F)OC1CN(Cc3ccccc31)C(=O)c1cccc(c1)S(=O)(=O)N2 (centres unmarked) [Compound 41] | +++ (+++ is >60%) | < 1 µM
CC(C)Oc1cccc(-c2nc3nc(c2C(F)(F)F)OC2CN(Cc4ccccc42)C(=O)c2cccc(c2)S(=O)(=O)N3)c1 (centres unmarked) [Compound 42] | + (+ is <30%) | < 1 µM
Cc1ccccc1-c1nc2nc(c1C(F)(F)F)OC1CN(Cc3ccccc31)C(=O)c1cccc(c1)S(=O)(=O)N2 (centres unmarked) [Compound 43] | +++ (+++ is >60%) | < 1 µM
CC(C)Oc1cccc(-c2nc3nc(c2C(C)(C)C)OC2CN(Cc4ccccc42)C(=O)c2cccc(c2)S(=O)(=O)N3)c1 (centres unmarked) [Compound 44] | + (+ is <30%) | 
Cc1ncccc1-c1nc2nc(c1C(C)(C)C)OC1CN(Cc3ccccc31)C(=O)c1cccc(c1)S(=O)(=O)N2 (centres unmarked) [Compound 45] | + (+ is <30%) | 
CC(C)(C)c1c2nc(nc1-c1ccccc1)NS(=O)(=O)c1cccc(c1)C(=O)N1Cc3ccccc3C(C1)O2 (centres unmarked) [Compound 46] | + (+ is <30%) | 
